# Test results as given in US8232315B2, “Methods for treating drug addiction and improving addiction-related behavior” (SK Biopharmaceuticals Co., Ltd., priority 2009, dated 2012).
# System: monkeys trained to discriminate cocaine (0.40 mg/kg) from saline
# Assay: Cocaine drug discrimination (substitution protocol) in rhesus monkeys
# Type: in vivo, rhesus monkeys (Macaca mulatta)
# Settings: 0.40 mg/kg cocaine i.m.; training days preceding test days
# Excerpt: Subjects: The subjects were four male rhesus monkeys (Macaca mulatta) each weighing 7.0-8.0 kg. Each monkey was maintained on a diet of 7-12 monkey biscuits (Purina Monkey Chow Jumbo #5037) and one piece of fresh fruit per day. During the week, all food was delivered after the experimental session, whereas on weekends, food was delivered between 9 a.m. and noon. Water was freely available at all times. The room in which the monkeys were housed was maintained on a 12-hr light/dark cycle, with lights on from 7 a.m. to 7 p.m.
# Apparatus: Each monkey was housed individually in a well-ventilated, stainless steel chamber (56×71×69 cm). The home cages of all monkeys were modified to include an operant panel (28×28 cm) mounted on the front wall. Three square translucent response keys (6.4×6.4 cm) were arranged 2.54 cm apart in a horizontal row 3.2 cm from the top of the operant panel. Each key could be transilluminated by red or green stimulus lights (Superbright LED'S). In addition, the operant panel supported an externally mounted pellet dispenser (Gerbrands, Model G53 10, Arlington, Mass.) that delivered 1 gm fruit-flavored food pellets (Precision Primate Pellets Formula L/I Banana Flavor, P. J. Noyes Co., Lancaster, N.H.) to a food receptacle mounted on the cage beneath the operant response panel. Operation of the operant panels and data collection were accomplished with IBM-compatible computers and interface systems (MedAssociates; St. Albans, Vt.) located in a separate room.
# Discrimination Training: Discrimination training was conducted 5 days per week during daily sessions composed of multiple cycles. Each cycle consisted of a 15-min time-out period followed by a 5-min response period. During the time-out, all stimulus lights were off, and responding had no scheduled consequences. During the response period, the right and left response keys were transilluminated red or green, and monkeys could earn up to 10 food pellets by responding under a FR 30 schedule of food presentation. For all four monkeys in this study, the left key was illuminated green, and the right key was illuminated red. The center key was not illuminated at any time, and responding on the center key had no scheduled consequences. If all available food pellets were delivered before the end of the 5-min response period, the stimulus lights transilluminating the response keys were turned off, and responding had no scheduled consequences for the remainder of the 5-min period.
# On training days, monkeys were given an i.m. injection of either saline or 0.40 mg/kg cocaine 5-min after the beginning of each time-out period (i.e., 10 min before the response period). Following the administration of saline, responding on only the green key (the saline-appropriate key) produced food, whereas following administration of 0.40 mg/kg cocaine, only responding on the red key (the drug-appropriate key) produced food. Responses on the inappropriate key reset the FR requirement on the appropriate key. Sessions consisted of 1 to 5 cycles, and if the training dose of cocaine was administered, it was administered only during the last cycle. Thus, training days consisted of 0 to 5 saline cycles followed by 0 to 1 drug cycles.
# During each response period, 3 dependent variables were determined using the following equations.
# 1) Percent injection-appropriate responding prior to delivery of the first reinforcer.
# 2) Percent injection-appropriate responding for the entire response period.
# Monkeys were considered to have acquired cocaine discrimination when the following three criteria were met for 7 of 8 consecutive training sessions: 1) the percent injection-appropriate responding prior to delivery of the first reinforcer was greater than or equal to 80% for all cycles; 2) the percent injection-appropriate responding for the entire cycle was greater than or equal to 90% for all cycles; 3) response rates during saline training cycles were greater than 0.5 responses per second. […]
smiles,measurement,value
"COC(=O)[C@H]1[C@@H](OC(=O)c2ccccc2)C[C@@H]2CC[C@H]1N2C [cocaine, reference compound]",Mean response rate during drug training cycles,2.58 (±0.67) responses/sec
